# Reference: patent US20180296623A1, “PHARMACEUTICAL COMPOSITION FOR PROMOTING PERIODONTAL TISSUE GROWTH AND FOR PREVENTION AND TREATMENT OF PERIODONTITIS, CONTAINING MAGNOLIA FLOWER EXTRACT, FRACTION THEREOF OR COMPOUND ISOLATED THEREFROM AS ACTIVE INGREDIENT” (OKINAWA RESEARCH CENTER CO., LTD., priority 2015, published 2018)
# Test system: dental root or periodontal tissue
# Test: Transplantation of mouse molar embedded in agarose beads containing fargesin into host mouse kidney capsule; micro CT
# Assay type: in vivo, C57BL/6 mouse
# Conditions: beads soaked in 80 μm fargesin in PBS, molar of 5-day-old mouse grafted into kidney capsule of 8-week-old host mouse, 3 weeks, vs PBS control
# Description: The following experiment was performed in order to investigate the promoting effect of the fargesin isolated from the Magnolia flower extract on the growth of dental root or periodontal tissue.
# Particularly, the fargesin obtained in Example 1 was diluted in PBS (Dainippon Pharmaceuticals Inc., Japan) at the final concentration of 80 μm, and four agarose beads (Affi-Gel Blue Gel, #153-7301, Bio-Rad Laboratories Inc., Japan) were washed with PBS, followed by reaction for at least 60 minutes to allow the fargesin to be absorbed in those beads. For the control, 4 other beads were reacted only with PBS. A 5-day-old C57BL/6 mouse (Sankyo Labo Service Corporation, Japan) was sacrificed, from which molars were extracted from the lower jaws. Dental pulp of the extracted molar was embedded in the agarose beads containing fargesin. For the control, dental pulp of the extracted molar was embedded in the agarose beads containing PBS alone. The agarose beads were each grafted into capsules of the 8-week-old C57BL/6 host mouse (female, Sankyo Labo Service Corporation, Japan) kidneys. The host mice were raised in the conditions of 12 h/12 h light and dark cycle, room temperature, and free feeding. 3 weeks later, the mice were sacrificed, from which the kidneys were extracted. Then, the teeth were observed. The 3D image of the teeth was taken by micro CT (Rigaku R_mCT2).
smiles,measurement,value
COc1ccc([C@@H]2OC[C@H]3[C@@H]2CO[C@@H]3c2ccc3c(c2)OCO3)cc1OC [fargesin],formation of alveolar bone around the grafted tooth,observed
same,growth of dental root,significant
